Source: US20100152434A1, “Protein Kinase-binding Nucleosides and Associated Methods” (priority 2007, published 2010)
pIC50: −log10 of the molar value. Where two headings read alike, the source gives them in different places.

Columns and labels:
[1] = system: EKVX
[2] = system: HOP-92
[3] = system: NCI-H23
[4] = system: HCT-15
[5] = system: HT29
[6] = system: SK-MEL-2
[7] = system: UACC-62
[8] = system: IGROV1
[9] = system: OVCAR-3
[10] = system: OVCAR-5
[11] = system: TK-10
[12] = system: MCF7
[13] = system: MDA-MB-231/ATCC
[14] = system: BT-549
[15] = system: T-47D
[16] = system: CCRF-CEM; assay: cells; details: Homo sapiens
[17] = system: A549/ATCC; assay: cells; details: Homo sapiens, A549
[18] = system: EKVX; assay: cells; details: Homo sapiens
[19] = system: NCI-H226; assay: cells; details: Homo sapiens, NCI-H226
[20] = system: NCI-H522; assay: cells; details: Homo sapiens, NCI-H522
[21] = system: U251; assay: cells; details: Homo sapiens, U-251
[22] = system: MALME-3M; assay: cells; details: Homo sapiens
[23] = system: SK-MEL-2; assay: cells; details: Homo sapiens, SK-MEL-2
[24] = system: OVCAR-4; assay: cells; details: Homo sapiens, OVCAR-4
[25] = system: 788-0; assay: cells; details: Homo sapiens, 786-0
[26] = system: RXF 393; assay: cells; details: Homo sapiens, RXF 393
[27] = system: NCI/ADR-RES; assay: cells; details: Homo sapiens
[28] = Log10 Concentration −4.0, Molar
[29] = Log10 Concentration −5.0, Molar
[30] = Log10 Concentration −6.0, Molar
[31] = Log10 Concentration −7.0, Molar
[32] = Log10 Concentration −8.0, Molar

CNC(=O)NC[C@H]1O[C@@H](n2cnc3c(NC(=O)Nc4ccccc4)ncnc32)C(O[Si](C)(C)C(C)(C)C)[C@H]1O[Si](C)(C)C(C)(C)C (some centres unmarked) [Compound 25, 2′,3′-Bis-O-(tert-butyldimethylsilyl)-5-deoxy-5′-[(N-methylcarbamoyl)amino]-N^6-(N-phenylcarbamoyl)adenosine]
TGI [1]: 3.06E−5 Molar
Percent Growth [1, 28]: −9%
Percent Growth [1, 29]: 9%
Percent Growth [1, 30]: 104%
Percent Growth [1, 31]: 111%
Percent Growth [1, 32]: 106%
TGI [2]: 5.16E−6 Molar
Percent Growth [2, 28]: −50%
Percent Growth [2, 29]: −25%
Percent Growth [2, 30]: 69%
Percent Growth [2, 31]: 80%
Percent Growth [2, 32]: 85%
TGI [3]: 9.07E−6 Molar
Percent Growth [3, 28]: −53%
Percent Growth [3, 29]: −5%
Percent Growth [3, 30]: 105%
Percent Growth [3, 31]: 106%
Percent Growth [3, 32]: 100%
TGI [4]: >1.00E−4 Molar
Percent Growth [4, 28]: 6%
Percent Growth [4, 29]: 11%
Percent Growth [4, 30]: 100%
Percent Growth [4, 31]: 106%
Percent Growth [4, 32]: 105%
TGI [5]: 3.73E−6 Molar
Percent Growth [5, 28]: −100%
Percent Growth [5, 29]: −80%
Percent Growth [5, 30]: 107%
Percent Growth [5, 31]: 104%
Percent Growth [5, 32]: 102%
TGI [6]: 5.54E−6 Molar
Percent Growth [6, 28]: −67%
Percent Growth [6, 29]: −35%
Percent Growth [6, 30]: 105%
Percent Growth [6, 31]: 110%
Percent Growth [6, 32]: 106%
TGI [7]: 2.36E−5 Molar
Percent Growth [7, 28]: −39%
Percent Growth [7, 29]: 23%
Percent Growth [7, 30]: 90%
Percent Growth [7, 31]: 100%
Percent Growth [7, 32]: 102%
TGI [8]: 7.76E−6 Molar
Percent Growth [8, 28]: −39%
Percent Growth [8, 29]: −12%
Percent Growth [8, 30]: 98%
Percent Growth [8, 31]: 99%
Percent Growth [8, 32]: 100%
TGI [9]: 5.54E−6 Molar
Percent Growth [9, 28]: −50%
Percent Growth [9, 29]: −39%
Percent Growth [9, 30]: 113%
Percent Growth [9, 31]: 113%
Percent Growth [9, 32]: 111%
TGI [10]: 2.52E−5 Molar
Percent Growth [10, 28]: −43%
Percent Growth [10, 29]: 29%
Percent Growth [10, 30]: 103%
Percent Growth [10, 31]: 99%
Percent Growth [10, 32]: 96%
TGI [11]: 7.26E−5 Molar
Percent Growth [11, 28]: −2%
Percent Growth [11, 29]: 14%
Percent Growth [11, 30]: 112%
Percent Growth [11, 31]: 113%
Percent Growth [11, 32]: 110%
TGI [12]: 1.93E−5 Molar
Percent Growth [12, 28]: −15%
Percent Growth [12, 29]: 5%
Percent Growth [12, 30]: 83%
Percent Growth [12, 31]: 96%
Percent Growth [12, 32]: 99%
TGI [13]: 5.12E−6 Molar
Percent Growth [13, 28]: −76%
Percent Growth [13, 29]: −20%
Percent Growth [13, 30]: 106%
Percent Growth [13, 31]: 109%
Percent Growth [13, 32]: 105%
TGI [14]: 9.18E−6 Molar
Percent Growth [14, 28]: −35%
Percent Growth [14, 29]: −10%
Percent Growth [14, 30]: 103%
Percent Growth [14, 31]: 112%
Percent Growth [14, 32]: 113%
TGI [15]: 1.03E−5 Molar
Percent Growth [15, 28]: −32%
Percent Growth [15, 30]: 92%
Percent Growth [15, 31]: 105%
Percent Growth [15, 32]: 101%
GI50 [16]: 3.59 µM
pIC50 [16]: < 4.00
GI50 [17]: 2.9 µM
pIC50 [17]: < 4.00
GI50 [18]: 3.7 µM
pIC50 [18]: < 4.00
GI50 [19]: 3.1 µM
pIC50 [19]: < 4.00
GI50 [20]: 2.39 µM
pIC50 [20]: < 4.00
GI50 [21]: 2.96 µM
pIC50 [21]: < 4.00
GI50 [22]: 2.98 µM
pIC50 [22]: < 4.00
GI50 [23]: 2.45 µM
pIC50 [23]: 4.55
GI50 [24]: 3.44 µM
pIC50 [24]: < 4.00
GI50 [25]: 2.04 µM
pIC50 [25]: 5.17
GI50 [26]: 2.14 µM
pIC50 [26]: 5.12
GI50 [27]: 3.72 µM
pIC50 [27]: < 4.00
